# Values joined by “and” are separate entries in the source; they are usually repeats but may differ in a detail not shown here. Equal values may be shown once.
# Assays:
# [1] = molecular target: neuronal acetylcholine receptor subunit alpha-2 (Xenopus tropicalis, UniProt A0A6I8T284)
# [2] = molecular target: cholinergic receptor, nicotinic, alpha 1 (Muscle) isoform X1 (Xenopus sp., UniProt F6RLM5)
# [3] = molecular target: neuronal acetylcholine receptor subunit alpha-4 (Xenopus sp., UniProt A9JRM3)
# [4] = molecular target: Cholinergic receptor nicotinic alpha 5 subunit (Xenopus sp., UniProt F7ELS1)
# [5] = molecular target: Cholinergic receptor, nicotinic alpha 1 (Xenopus sp., UniProt F6RLA9)
# Sequence of Cholinergic receptor, nicotinic alpha 1 (F6RLA9 whole entry): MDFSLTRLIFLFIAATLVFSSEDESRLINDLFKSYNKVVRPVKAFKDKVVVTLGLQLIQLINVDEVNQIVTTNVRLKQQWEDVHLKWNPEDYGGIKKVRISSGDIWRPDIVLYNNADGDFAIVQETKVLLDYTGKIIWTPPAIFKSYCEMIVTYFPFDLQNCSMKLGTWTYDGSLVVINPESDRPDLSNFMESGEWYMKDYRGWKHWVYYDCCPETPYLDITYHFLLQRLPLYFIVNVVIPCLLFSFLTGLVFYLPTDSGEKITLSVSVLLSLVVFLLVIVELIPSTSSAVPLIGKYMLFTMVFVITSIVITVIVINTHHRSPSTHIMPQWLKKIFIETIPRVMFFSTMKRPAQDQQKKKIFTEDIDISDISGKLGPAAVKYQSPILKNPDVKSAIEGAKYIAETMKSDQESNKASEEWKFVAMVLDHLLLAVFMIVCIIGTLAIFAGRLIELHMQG
# Sequence of cholinergic receptor, nicotinic, alpha 1 (Muscle) isoform X1 (F6RLM5 whole entry, canonical isoform): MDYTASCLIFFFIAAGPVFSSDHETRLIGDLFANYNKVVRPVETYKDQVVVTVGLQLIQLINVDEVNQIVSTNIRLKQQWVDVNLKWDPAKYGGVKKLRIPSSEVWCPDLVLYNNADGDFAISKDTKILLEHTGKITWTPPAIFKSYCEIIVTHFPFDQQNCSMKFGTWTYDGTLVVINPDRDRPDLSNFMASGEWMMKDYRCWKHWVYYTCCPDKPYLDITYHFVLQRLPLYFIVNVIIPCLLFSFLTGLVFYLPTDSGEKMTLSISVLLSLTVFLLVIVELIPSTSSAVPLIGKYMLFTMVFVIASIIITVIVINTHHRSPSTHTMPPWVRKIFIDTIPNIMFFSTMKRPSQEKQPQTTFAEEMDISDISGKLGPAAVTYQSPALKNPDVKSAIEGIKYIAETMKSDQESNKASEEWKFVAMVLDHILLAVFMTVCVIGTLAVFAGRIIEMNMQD
# Sequence of Cholinergic receptor nicotinic alpha 5 subunit (F7ELS1 whole entry): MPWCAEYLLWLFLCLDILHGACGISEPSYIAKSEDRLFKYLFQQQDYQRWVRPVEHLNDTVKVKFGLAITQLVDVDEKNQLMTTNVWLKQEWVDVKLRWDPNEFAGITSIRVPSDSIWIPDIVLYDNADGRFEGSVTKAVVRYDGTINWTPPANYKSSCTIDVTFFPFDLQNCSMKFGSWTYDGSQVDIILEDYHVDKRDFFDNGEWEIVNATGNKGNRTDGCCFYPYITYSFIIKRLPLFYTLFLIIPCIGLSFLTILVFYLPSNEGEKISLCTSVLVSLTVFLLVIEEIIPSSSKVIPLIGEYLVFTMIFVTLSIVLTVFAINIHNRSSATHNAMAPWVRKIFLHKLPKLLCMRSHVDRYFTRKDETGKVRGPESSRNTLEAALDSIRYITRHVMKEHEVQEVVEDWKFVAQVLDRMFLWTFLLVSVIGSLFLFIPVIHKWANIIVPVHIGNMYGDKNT
# Sequence of neuronal acetylcholine receptor subunit alpha-4 (A9JRM3 whole entry): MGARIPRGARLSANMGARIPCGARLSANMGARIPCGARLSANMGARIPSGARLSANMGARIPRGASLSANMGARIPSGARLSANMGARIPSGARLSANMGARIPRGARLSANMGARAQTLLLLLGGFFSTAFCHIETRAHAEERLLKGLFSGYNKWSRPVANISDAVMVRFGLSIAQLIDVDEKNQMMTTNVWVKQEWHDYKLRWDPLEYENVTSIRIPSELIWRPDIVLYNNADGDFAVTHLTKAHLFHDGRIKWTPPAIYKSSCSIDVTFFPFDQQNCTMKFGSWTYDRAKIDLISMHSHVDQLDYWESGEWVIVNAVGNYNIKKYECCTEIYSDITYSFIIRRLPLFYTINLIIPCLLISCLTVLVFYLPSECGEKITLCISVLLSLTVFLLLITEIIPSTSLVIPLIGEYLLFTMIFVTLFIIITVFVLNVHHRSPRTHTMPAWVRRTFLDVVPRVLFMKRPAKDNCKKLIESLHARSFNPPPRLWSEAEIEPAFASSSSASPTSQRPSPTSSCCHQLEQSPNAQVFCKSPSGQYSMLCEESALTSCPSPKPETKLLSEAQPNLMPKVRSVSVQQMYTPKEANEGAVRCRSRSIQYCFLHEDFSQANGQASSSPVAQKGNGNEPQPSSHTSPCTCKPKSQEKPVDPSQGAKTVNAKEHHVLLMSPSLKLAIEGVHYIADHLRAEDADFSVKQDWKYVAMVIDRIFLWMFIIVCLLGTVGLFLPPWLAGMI
# Sequence of neuronal acetylcholine receptor subunit alpha-2 (A0A6I8T284 whole entry, canonical isoform): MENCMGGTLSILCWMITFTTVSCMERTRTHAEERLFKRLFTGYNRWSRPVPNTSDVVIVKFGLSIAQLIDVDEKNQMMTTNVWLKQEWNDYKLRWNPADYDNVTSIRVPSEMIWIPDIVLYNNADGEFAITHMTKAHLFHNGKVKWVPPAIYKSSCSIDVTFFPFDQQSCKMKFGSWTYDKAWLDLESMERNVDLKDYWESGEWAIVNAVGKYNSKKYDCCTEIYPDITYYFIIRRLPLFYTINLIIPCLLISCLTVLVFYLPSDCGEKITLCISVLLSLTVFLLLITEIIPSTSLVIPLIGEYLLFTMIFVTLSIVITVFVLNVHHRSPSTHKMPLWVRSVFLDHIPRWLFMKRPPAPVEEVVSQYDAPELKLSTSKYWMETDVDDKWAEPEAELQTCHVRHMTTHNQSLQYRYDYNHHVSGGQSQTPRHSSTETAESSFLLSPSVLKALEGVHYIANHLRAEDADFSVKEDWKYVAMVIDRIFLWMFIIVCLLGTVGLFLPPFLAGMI
SMILES,Ki [1],Ki [2],Ki [3],Ki [4],Ki [5]
O=c1ccc([C@H]2CC3CCC2N3)c[nH]1 (some centres not stated),100 nM,100 nM,100 nM,,
Clc1ccc([C@H]2CC3CCC2N3)cn1 (stereo partly drawn) [2-(6-Chloro-pyridin-3-yl)-7-aza-bicyclo[2.2.1]heptane(+/-) epibatidine],87 nM,,,,
Brc1ccc([C@H]2CC3CCC2N3)cn1 (some centres not stated) [NBEP],0.013 nM and 0.055 nM,0.004 nM,0.01 nM,0.22 nM,0.044 nM
CN(C)c1ccc([C@H]2CC3CCC2N3)cn1 (some centres not stated) [NDMNEP],100 nM,100 nM,100 nM,,
c1cncc([C@H]2CC3CCC2N3)c1 (some centres not stated) [NEP],,0.0031 nM,0.0085 nM,11 nM,3.2 nM
Fc1ccc([C@H]2CC3CCC2N3)cn1 (some centres not stated) [NFEP],,0.0038 nM,0.0092 nM,2.1 nM,0.48 nM
Nc1ccc([C@H]2CC3CCC2N3)cn1 (some centres not stated) [NNEP],,0.077 nM,0.35 nM,7.2 nM,4.3 nM
O=S(=O)(Oc1ccc([C@H]2CC3CCC2N3)cn1)C(F)(F)F (some centres not stated) [NTEP],10 nM,100 nM,100 nM,,

# Source: BindingDB's records for doi:10.1124/jpet.102.035899 (University of Miami, 2002)
